Experimental data published in the NIST ThermoML archive (doi:10.1007/s10765-009-0648-5).
± gives the expanded uncertainty stated by the source.

Test: wn = mass fraction of the nth substance listed
Conditions: 101 kPa, Liquid

CCC[n+]1ccn(C)c1.[Br-] [1-methyl-3-propylimidazolium bromide] + CC#N
Conditions	mass density, 288.15 K [kg/m3]	mass density, 293.15 K [kg/m3]	mass density, 298.15 K [kg/m3]	mass density, 303.15 K [kg/m3]	mass density, 308.15 K [kg/m3]	speed of sound, 288.15 K [m/s]	speed of sound, 293.15 K [m/s]	speed of sound, 298.15 K [m/s]	speed of sound, 303.15 K [m/s]	speed of sound, 308.15 K [m/s]
w1 = 0.0042	788.991 ± 1.4	783.623 ± 1.4	778.237 ± 1.4	772.813 ± 1.4	767.37 ± 1.5	1320.2 ± 1.4	1300.1 ± 1.4	1280 ± 1.4	1259.7 ± 1.4	1239.6 ± 1.4
w1 = 0.0061	789.726 ± 1.4	784.364 ± 1.4	778.979 ± 1.4	773.562 ± 1.4	768.119 ± 1.5	1320.5 ± 1.4	1300.3 ± 1.4	1280.2 ± 1.4	1260 ± 1.4	1240.1 ± 1.4
w1 = 0.0082	790.532 ± 1.4	785.181 ± 1.4	779.798 ± 1.4	774.387 ± 1.4	768.949 ± 1.5	1321.1 ± 1.4	1301.1 ± 1.4	1281 ± 1.4	1260.9 ± 1.4	1240.8 ± 1.4
w1 = 0.0107	791.47 ± 1.4	786.115 ± 1.4	780.735 ± 1.4	775.331 ± 1.4	769.896 ± 1.5	1321.5 ± 1.4	1301.3 ± 1.4	1281.2 ± 1.4	1261.1 ± 1.4	1241.2 ± 1.4
w1 = 0.0124	792.123 ± 1.4	786.772 ± 1.4	781.397 ± 1.4	775.996 ± 1.4	770.564 ± 1.5	1322 ± 1.4	1302 ± 1.4	1281.9 ± 1.4	1261.8 ± 1.4	1241.7 ± 1.4
w1 = 0.0161	793.533 ± 1.3	788.186 ± 1.4	782.814 ± 1.4	777.417 ± 1.4	771.996 ± 1.4	1322.6 ± 1.4	1302.5 ± 1.4	1282.4 ± 1.4	1262.3 ± 1.4	1242.5 ± 1.4
w1 = 0.0206	795.242 ± 1.3	789.902 ± 1.4	784.538 ± 1.4	779.149 ± 1.4	773.734 ± 1.4	1323.5 ± 1.4	1303.4 ± 1.4	1283.4 ± 1.4	1263.4 ± 1.4	1243.5 ± 1.4
w1 = 0.0251	796.939 ± 1.3	791.606 ± 1.4	786.248 ± 1.4	780.864 ± 1.4	775.46 ± 1.4	1324.4 ± 1.4	1304.3 ± 1.4	1284.3 ± 1.4	1264.4 ± 1.4	1244.6 ± 1.4
w1 = 0.0298	798.688 ± 1.3	793.361 ± 1.4	788.011 ± 1.4	782.637 ± 1.4	777.238 ± 1.4	1325.3 ± 1.4	1305.3 ± 1.4	1285.3 ± 1.4	1265.4 ± 1.4	1245.6 ± 1.4
w1 = 0.0347	800.578 ± 1.3	795.262 ± 1.3	789.919 ± 1.4	784.553 ± 1.4	779.16 ± 1.4	1326.4 ± 1.4	1306.5 ± 1.4	1286.6 ± 1.4	1266.7 ± 1.4	1246.8 ± 1.4
w1 = 0.0407	802.812 ± 1.3	797.5 ± 1.3	792.166 ± 1.4	786.808 ± 1.4	781.426 ± 1.4	1327.3 ± 1.4	1307.4 ± 1.4	1287.5 ± 1.4	1267.6 ± 1.4	1248 ± 1.4
w1 = 0.0493	806.071 ± 1.3	800.772 ± 1.3	795.452 ± 1.3	790.107 ± 1.4	784.738 ± 1.4	1329.1 ± 1.4	1309.3 ± 1.4	1289.4 ± 1.4	1269.6 ± 1.4	1249.8 ± 1.4
w1 = 0.0605	810.335 ± 1.3	805.049 ± 1.3	799.743 ± 1.3	794.412 ± 1.4	789.059 ± 1.4	1331 ± 1.4	1311.1 ± 1.4	1291.3 ± 1.4	1271.6 ± 1.4	1252.1 ± 1.4
w1 = 1	1323.47 ± 3.3	1319.84 ± 3.3	1316.22 ± 3.3	1312.6 ± 3.2	1308.97 ± 3.2	1699.3 ± 2.6	1685 ± 2.6	1672 ± 2.6	1659.9 ± 2.6	1648.3 ± 2.6

CCC[n+]1ccn(C)c1.[Br-] [1-methyl-3-propylimidazolium bromide] + CN(C)C=O
Conditions	mass density, 288.15 K [kg/m3]	mass density, 293.15 K [kg/m3]	mass density, 298.15 K [kg/m3]	mass density, 303.15 K [kg/m3]	mass density, 308.15 K [kg/m3]	speed of sound, 288.15 K [m/s]	speed of sound, 293.15 K [m/s]	speed of sound, 298.15 K [m/s]	speed of sound, 303.15 K [m/s]	speed of sound, 308.15 K [m/s]
w1 = 0.006	955.471 ± 0.59	950.721 ± 0.61	945.962 ± 0.64	941.197 ± 0.66	936.424 ± 0.68	1498.4 ± 1.5	1479.2 ± 1.5	1459.8 ± 1.5	1440.5 ± 1.5	1421.2 ± 1.5
w1 = 0.0073	955.896 ± 0.59	951.148 ± 0.61	946.392 ± 0.63	941.628 ± 0.66	936.859 ± 0.68	1498.7 ± 1.5	1479.5 ± 1.5	1460.1 ± 1.5	1440.8 ± 1.5	1421.5 ± 1.5
w1 = 0.0101	956.834 ± 0.58	952.089 ± 0.61	947.339 ± 0.63	942.58 ± 0.65	937.812 ± 0.67	1499.5 ± 1.5	1480.2 ± 1.5	1460.8 ± 1.5	1441.4 ± 1.5	1422.2 ± 1.5
w1 = 0.012	957.413 ± 0.58	952.669 ± 0.6	947.92 ± 0.63	943.162 ± 0.65	938.398 ± 0.67	1499.8 ± 1.5	1480.3 ± 1.5	1460.9 ± 1.5	1441.6 ± 1.5	1422.5 ± 1.5
w1 = 0.0162	958.776 ± 0.58	954.039 ± 0.6	949.295 ± 0.62	944.542 ± 0.64	939.782 ± 0.67	1500.8 ± 1.5	1481.6 ± 1.5	1462.2 ± 1.5	1442.9 ± 1.5	1423.7 ± 1.5
w1 = 0.0204	960.154 ± 0.57	955.416 ± 0.59	950.675 ± 0.61	945.932 ± 0.64	941.175 ± 0.66	1501.7 ± 1.5	1482.2 ± 1.5	1462.9 ± 1.5	1443.6 ± 1.5	1424.5 ± 1.5
w1 = 0.0249	961.605 ± 0.56	956.878 ± 0.59	952.144 ± 0.61	947.403 ± 0.63	942.652 ± 0.65	1502.7 ± 1.5	1483.5 ± 1.5	1464.2 ± 1.5	1445 ± 1.5	1425.8 ± 1.5
w1 = 0.0303	963.324 ± 0.56	958.602 ± 0.58	953.872 ± 0.6	949.136 ± 0.62	944.395 ± 0.65	1503.7 ± 1.6	1484.4 ± 1.5	1465.1 ± 1.5	1445.9 ± 1.5	1426.9 ± 1.5
w1 = 0.0348	964.79 ± 0.55	960.068 ± 0.57	955.349 ± 0.59	950.617 ± 0.62	945.882 ± 0.64	1504.8 ± 1.6	1485.4 ± 1.5	1466.2 ± 1.5	1447 ± 1.5	1428.1 ± 1.5
w1 = 0.0405	966.57 ± 0.54	961.858 ± 0.57	957.139 ± 0.59	952.415 ± 0.61	947.684 ± 0.63	1505.8 ± 1.6	1486.5 ± 1.5	1467.3 ± 1.5	1448.2 ± 1.5	1429.2 ± 1.5
w1 = 0.0503	969.758 ± 0.53	965.06 ± 0.55	960.356 ± 0.57	955.641 ± 0.6	950.923 ± 0.62	1507.8 ± 1.6	1488.8 ± 1.5	1469.7 ± 1.5	1450.5 ± 1.5	1431.6 ± 1.5
w1 = 0.0586	972.333 ± 0.52	967.639 ± 0.54	962.94 ± 0.56	958.234 ± 0.59	953.523 ± 0.61	1509.3 ± 1.6	1490.1 ± 1.5	1471 ± 1.5	1452 ± 1.5	1433.1 ± 1.5
w1 = 1	1323.47 ± 3.3	1319.84 ± 3.3	1316.22 ± 3.3	1312.6 ± 3.2	1308.97 ± 3.2	1699.3 ± 2.6	1685 ± 2.6	1672 ± 2.6	1659.9 ± 2.6	1648.3 ± 2.6
